The values that follow come from patent US12528815B2, “5-amino-8-(4-pyridyl)-[1,2,4]triazolo[4,3-c]pyrimidin-3-one compounds for use against cancer” (Nxera Pharma UK Limited, priority 2020, dated 2026).

Experiment [1] concerns the target T1, human adenosine A1 receptor (Homo sapiens, UniProt P30542).
T1 construct: expressed in transfected cells; host or cells: HEK293 cells infected with BacMam (the same paragraph also labels the preparation CHO-hA1)
T1 sequence (P30542 1-326): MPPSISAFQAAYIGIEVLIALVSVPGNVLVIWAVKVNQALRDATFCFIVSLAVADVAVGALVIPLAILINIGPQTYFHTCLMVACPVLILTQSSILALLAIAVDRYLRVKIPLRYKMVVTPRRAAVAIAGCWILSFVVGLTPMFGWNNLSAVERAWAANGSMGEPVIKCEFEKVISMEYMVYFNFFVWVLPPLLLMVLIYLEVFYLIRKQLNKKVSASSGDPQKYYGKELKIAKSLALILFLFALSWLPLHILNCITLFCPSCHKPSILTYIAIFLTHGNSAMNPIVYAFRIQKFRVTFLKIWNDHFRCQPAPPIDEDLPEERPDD
The experiment is described as follows: Inhibition binding assay, human adenosine A1 receptor membranes, [3H]DPCPX. The conditions noted are these: 1 nM [3H]DPCPX, 25° C., 1 h; IC50 converted to Ki with Cheng-Prusoff; read-out: A1 pKi (converted). The procedure, abridged: (§1)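 Membranes from BacMam-infected HEK293 cells (0.2 μg A2A, 1.4 μg A1) incubated 1 h at 25° C with test compound and 1 nM [3H]ZM241385 (A2A; 50 mM Tris-HCl pH 7.4) or [3H]DPCPX (A1; plus 100 mM NaCl, 10 mM MgCl2). Nonspecific: 1 μM CGS15943 or DPCPX. Filtration, scintillation; IC50 converted to Ki via Cheng-Prusoff.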

The target in experiment [2] is T2, human adenosine A2A receptor (Homo sapiens, UniProt P29274).
T2 construct: expressed in transfected cells; host or cells: HEK293 cells infected with BacMam
T2 sequence (P29274 whole entry): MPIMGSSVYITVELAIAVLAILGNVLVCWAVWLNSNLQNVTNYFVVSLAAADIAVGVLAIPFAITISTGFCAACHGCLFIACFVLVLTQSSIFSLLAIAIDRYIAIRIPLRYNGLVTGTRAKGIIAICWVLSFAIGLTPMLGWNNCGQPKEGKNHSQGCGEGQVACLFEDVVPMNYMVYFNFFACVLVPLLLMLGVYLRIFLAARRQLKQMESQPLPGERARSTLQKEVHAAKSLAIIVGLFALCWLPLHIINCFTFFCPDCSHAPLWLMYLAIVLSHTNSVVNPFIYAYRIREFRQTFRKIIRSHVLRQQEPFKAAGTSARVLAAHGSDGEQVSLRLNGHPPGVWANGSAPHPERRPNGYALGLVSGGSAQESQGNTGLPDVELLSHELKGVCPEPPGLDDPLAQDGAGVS
The experiment can be described thus: Inhibition binding assay, human adenosine A2A receptor membranes, [3H]ZM241385. The following applies: 1 nM [3H]ZM241385, HEK293-hA2A membranes, 25° C., 1 h; IC50 converted to Ki with Cheng-Prusoff; read-out: A2A pKi (converted). The procedure, abridged:
as §1

Another experiment has as its target T3, human CB1 receptor (Homo sapiens, UniProt P21554).
T3 construct: expressed in transfected cells; host or cells: CHO cells
The experiment is described as follows: CB1 receptor antagonism, agonist-induced cAMP modulation (HTRF) in transfected CHO cells. Format: cell-based. The conditions noted are these: read-out: Antag IC50. The protocol:
Receptor antagonism: Evaluation of the antagonist activity of compounds at the human CB1 receptor expressed in transfected CHO cells, determined by measuring their effects on agonist-induced cAMP modulation using the HTRF detection method.
Thereafter, the reference agonist CP 55940 and the adenylyl cyclase activator NKH 477 are added at respective final concentrations of 3 nM and 3 μM.
For basal control measurements, CP 55940 is omitted from the wells containing 3 μM AM 281.
Following 20 min incubation at 37° C., the cells are lysed and the fluorescence acceptor (D2-labeled cAMP) and fluorescence donor (anti-cAMP antibody labeled with europium cryptate) are added.
After 60 min at room temperature, the fluorescence transfer is measured at λex=337 nm and λem=620 and 665 nm using a microplate reader (Rubystar, BMG). The cAMP concentration is determined by dividing the signal measured at 665 nm by that measured at 620 nm (ratio).
The standard reference antagonist is AM 281, which is tested in each experiment at several concentrations to generate a concentration-response curve from which its IC50 value is calculated.
A general note: In TR-FRET formats the signal depends on donor and acceptor labels being close together.

T3 sequence (P21554 whole entry): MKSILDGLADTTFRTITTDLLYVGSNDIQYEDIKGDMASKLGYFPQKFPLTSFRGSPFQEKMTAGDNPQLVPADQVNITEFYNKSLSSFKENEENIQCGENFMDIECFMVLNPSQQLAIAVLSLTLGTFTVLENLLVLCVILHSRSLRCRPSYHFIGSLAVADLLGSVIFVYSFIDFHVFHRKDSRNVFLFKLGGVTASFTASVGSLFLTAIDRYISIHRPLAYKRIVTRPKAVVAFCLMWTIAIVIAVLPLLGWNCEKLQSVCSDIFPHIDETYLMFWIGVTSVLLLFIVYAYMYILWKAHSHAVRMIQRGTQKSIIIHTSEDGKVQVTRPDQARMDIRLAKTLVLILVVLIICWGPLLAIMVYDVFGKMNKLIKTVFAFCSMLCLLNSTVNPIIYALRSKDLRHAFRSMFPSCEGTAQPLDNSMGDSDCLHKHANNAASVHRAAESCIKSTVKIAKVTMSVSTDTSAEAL

With `COc1nc(Cn2nc3c(-c4cc(C)nc(C)c4)c(-c4ccccc4)nc(N)n3c2=O)ccc1F` [Example 1-7, 5-amino-8-(2,6-dimethyl-4-pyridyl)-2-[(5-fluoro-6-methoxy-2-pyridyl)methyl]-7-phenyl-[1,2,4]triazolo[4,3-c]pyrimidin-3-one], the Ki in experiment [1] is 398 nM; in experiment [2] it was 3.98 nM. Besides, on human CB1 receptor, the IC50 – broadly, the concentration needed to halve the response being measured – came out at 3200 nM.

`Cc1cc(-c2c(-c3ccccc3)nc(N)n3c(=O)n(Cc4ccc(F)c(N)n4)nc23)cc(CO)n1` [Example 1-45, 5-amino-2-[(6-amino-5-fluoro-2-pyridyl)methyl]-8-[2-(hydroxymethyl)-6-methyl-4-pyridyl]-7-phenyl-[1,2,4]triazolo[4,3-c]pyrimidin-3-one]: the Ki in experiment [1] was 126 nM; in experiment [2], 0.794 nM. Further, at human CB1 receptor, the IC50 is greater than 100000 nM.

As to `COCCn1nc2c(-c3cc(C)nc(C)c3)c(-c3ccccc3)nc(N)n2c1=O` [Example 2-10, 5-amino-8-(2,6-dimethyl-4-pyridyl)-2-(2-methoxyethyl)-7-phenyl-[1,2,4]triazolo[4,3-c]pyrimidin-3-one], the Ki in experiment [1] is 251 nM; in experiment [2], 10 nM. On human CB1 receptor, the half-inhibitory concentration (IC50) was greater than 100000 nM.

With `CCN(C)CCn1nc2c(-c3cc(C)nc(C)c3)c(-c3ccccc3)nc(N)n2c1=O` [Example 2-18, 5-amino-8-(2,6-dimethyl-4-pyridyl)-2-[2-[ethyl(methyl)amino]ethyl]-7-phenyl-[1,2,4]triazolo[4,3-c]pyrimidin-3-one], the Ki in experiment [2] was 6.31 nM. In addition, on human CB1 receptor, the half-maximal inhibitory concentration (IC50) is greater than 100000 nM.

On to `Cc1cc(-c2c(-c3ccccc3)nc(N)n3c(=O)n(CC(=O)N(C)C)nc23)cc(C)n1` [Example 2-25, 2-[5-amino-8-(2,6-dimethyl-4-pyridyl)-3-oxo-7-phenyl-[1,2,4]triazolo[4,3-c]pyrimidin-2-yl]-N,N-dimethyl-acetamide], for which the Ki in experiment [2] was 10 nM. In addition, the IC50 on human CB1 receptor was greater than 100000 nM.

On to `Cc1cc(-c2c(-c3nc(C)cs3)nc(N)n3c(=O)n(CCC(F)(F)F)nc23)cc(C)n1` [Example 2-44, 5-amino-8-(2,6-dimethyl-4-pyridyl)-7-(4-methylthiazol-2-yl)-2-(3,3,3-trifluoropropyl)-[1,2,4]triazolo[4,3-c]pyrimidin-3-one], for which the Ki in experiment [2] is 20 nM. Further, the concentration for half-maximal inhibition (IC50) at human CB1 receptor was greater than 100000 nM.

Take `COC(=O)c1nc(N)n2c(=O)n(CCC(F)(F)F)nc2c1-c1cc(C)nc(C)c1` [Example 3-6, methyl 5-amino-8-(2,6-dimethyl-4-pyridyl)-3-oxo-2-(3,3,3-trifluoropropyl)-[1,2,4]triazolo[4,3-c]pyrimidine-7-carboxylate]: the Ki in experiment [1] is greater than 3160 nM; in experiment [2], 200 nM.

For the compound `CC#Cc1nc(N)n2c(=O)n(CCC(F)(F)F)nc2c1-c1cc(C)nc(C)c1` [Example 3-7, 5-amino-8-(2,6-dimethyl-4-pyridyl)-7-prop-1-ynyl-2-(3,3,3-trifluoropropyl)-[1,2,4]triazolo[4,3-c]pyrimidin-3-one], the results for the Ki in experiment [1] and in experiment [2] were greater than 3980 nM and 31.6 nM, respectively.

In the case of `COc1nc(N)n2c(=O)n(CCC(F)(F)F)nc2c1-c1cc(C)nc(C)c1` [Example 3-8, 5-amino-8-(2,6-dimethyl-4-pyridyl)-7-methoxy-2-(3,3,3-trifluoropropyl)-[1,2,4]triazolo[4,3-c]pyrimidin-3-one], the results for the Ki in experiment [1] and in experiment [2] were greater than 3160 nM and 1260 nM, respectively.

For the compound `C/C=C(/C)c1nc(N)n2c(=O)n(CCC(F)(F)F)nc2c1-c1cc(C)nc(C)c1` [Example 3-9, 5-amino-8-(2,6-dimethyl-4-pyridyl)-7-[(Z)-1-methylprop-1-enyl]-2-(3,3,3-trifluoropropyl)-[1,2,4]triazolo[4,3-c]pyrimidin-3-one], the Ki in experiment [1] was greater than 3160 nM; in experiment [2] it was 398 nM.

Turning to `C/C=C(\C)c1nc(N)n2c(=O)n(CCC(F)(F)F)nc2c1-c1cc(C)nc(C)c1` [Example 3-10, 5-amino-8-(2,6-dimethyl-4-pyridyl)-7-[(E)-1-methylprop-1-enyl]-2-(3,3,3-trifluoropropyl)-[1,2,4]triazolo[4,3-c]pyrimidin-3-one], the Ki in experiment [1] was greater than 3160 nM; in experiment [2] it was 10 nM.
